Measurements: US20050124559A1, “Antimicrobial agent” (priority 2002, published 2005)

Tests used:
Type in all cases: cell-based
Bacillus subtilis = test: Zone Inhibition Assay; set-up: key: +++=large zone of inhibition; −=no zone of inhibition; conditions: 3 μL of a 10 μg/mL sample on a filter disc on a lawn of bacteria, arbitrary scale
Experimental: (§1) Inhibition of various bacteria by compound 1 (n=6, and n=4) are described in Table 2. The biological data were determined by a Zone Inhibition Assay method. The zone of inhibition was measured using an arbitrary scale: (+++=large zone of inhibition, −=no zone of inhibition). Compound 1 (n=6, and n=4) were tested by spotting 3 μL of a 10 μg/mL sample onto a filter disc which was placed on a lawn of bacteria. N.B. Compound 1 (n=8) was used as a positive control.

Enterococcus faecalis = test: Zone Inhibition Assay; set-up: key: +++=large zone of inhibition; −=no zone of inhibition; conditions: 3 μL of a 10 μg/mL sample on a filter disc on a lawn of bacteria, arbitrary scale
Experimental: as §1

Mycobacterium smegmatis = test: Zone Inhibition Assay; set-up: key: +++=large zone of inhibition; −=no zone of inhibition; conditions: 3 μL of a 10 μg/mL sample on a filter disc on a lawn of bacteria, arbitrary scale
Experimental: as §1

Staphylococcus aureus [1] = test: Zone Inhibition Assay; set-up: key: +++=large zone of inhibition; −=no zone of inhibition; conditions: 3 μL of a 10 μg/mL sample on a filter disc on a lawn of bacteria, arbitrary scale
Experimental: as §1

Enterococci sp. = test: MIC by BACTEC or Mueller-Hinton agar method
Experimental: (§2) Inhibition of various bacteria by compound 1 (n=8) is described in Table 1. The biological data were determined by either the BACTEC or Mueller-Hinton agar method and expressed as a minimum inhibitory concentration (MIC).

M. abscessus = test: MIC by BACTEC or Mueller-Hinton agar method
Experimental: as §2

M. avium intracellulare = test: MIC by BACTEC or Mueller-Hinton agar method
Experimental: as §2

M. fortuitum = test: MIC by BACTEC or Mueller-Hinton agar method
Experimental: as §2

[2] = test system: Mycobacterium tuberculosis; test: MIC by BACTEC or Mueller-Hinton agar method
Experimental: as §2

N. nova = test: MIC by BACTEC or Mueller-Hinton agar method
Experimental: as §2

Nocardia asteroides = test: MIC by BACTEC or Mueller-Hinton agar method
Experimental: as §2

[3] = test system: Rapid Growing Atypical Mycobacterial Strains; test: MIC by BACTEC or Mueller-Hinton agar method
Experimental: as §2

[4] = test system: S. aureus (Coagulas-negative); test: MIC by BACTEC or Mueller-Hinton agar method
Experimental: as §2

Staphylococcus aureus [5] = test: MIC by BACTEC or Mueller-Hinton agar method
Experimental: as §2

| Compound | Zone of Inhibition (Bacillus subtilis) | Zone of Inhibition (Enterococcus faecalis) | Zone of Inhibition (Mycobacterium smegmatis) | Zone of Inhibition (Staphylococcus aureus [1]) | MIC (Enterococci sp.) [µg/mL] | MIC (M. abscessus) [µg/mL] | MIC (M. avium intracellulare) [µg/mL] | MIC (M. fortuitum) [µg/mL] | MIC [2] [µg/mL] | MIC (N. nova) [µg/mL] | MIC (Nocardia asteroides) [µg/mL] | MIC [3] [µg/mL] | MIC [4] [µg/mL] | MIC (Staphylococcus aureus [5]) [µg/mL] |
| --- | --- | --- | --- | --- | --- | --- | --- | --- | --- | --- | --- | --- | --- | --- |
| CCCCCCCCN(CCCCCCCC)S[C@@H]1O[C@@H]([C@H](O)CO)[C@H](O)[C@H]1O [1 (n=6), N,N-Dioctyl-S-(1-thio-β-D-galactofuranosyl)sulfenamide] | +++ | +++ | +++ | +++ | – | – | – | – | – | – | – | – | – | – |
| CCCCCCCCCCN(CCCCCCCCCC)S[C@@H]1O[C@@H]([C@H](O)CO)[C@H](O)[C@H]1O [Compound 1 (n=8), N,N-Didecyl-S-(1-thio-β-D-galactofuranosyl)sulfenamide] | – | – | – | – | 5 to 50 | <5 | <5 | <5 | <5 | <5 | <5 | <5 | 5 to 50 | 5 to 50 |
